# Data from patent US20090111801A1, “SUBSTITUTED PYRAZINONE DERIVATIVES FOR USE AS A MEDICINE” (Janssen Pharmaceutica N.V., priority 2006, published 2009).
# How the values were obtained:
# hα2A receptor = target: T1, hα2A receptor (Homo sapiens, UniProt P08913); assay: Radioligand binding experiment for α2A-adrenoceptor ([3H]raulwolscine, CHO cell membranes); conditions: [3H]raulwolscine binding; for IC50: read-out: h-α2A pIC50 (converted)
# T1 construct: expressed in transfected cells; host or cells: CHO cells, stably transfected; membrane preparation
# T1 sequence (P08913 1-465): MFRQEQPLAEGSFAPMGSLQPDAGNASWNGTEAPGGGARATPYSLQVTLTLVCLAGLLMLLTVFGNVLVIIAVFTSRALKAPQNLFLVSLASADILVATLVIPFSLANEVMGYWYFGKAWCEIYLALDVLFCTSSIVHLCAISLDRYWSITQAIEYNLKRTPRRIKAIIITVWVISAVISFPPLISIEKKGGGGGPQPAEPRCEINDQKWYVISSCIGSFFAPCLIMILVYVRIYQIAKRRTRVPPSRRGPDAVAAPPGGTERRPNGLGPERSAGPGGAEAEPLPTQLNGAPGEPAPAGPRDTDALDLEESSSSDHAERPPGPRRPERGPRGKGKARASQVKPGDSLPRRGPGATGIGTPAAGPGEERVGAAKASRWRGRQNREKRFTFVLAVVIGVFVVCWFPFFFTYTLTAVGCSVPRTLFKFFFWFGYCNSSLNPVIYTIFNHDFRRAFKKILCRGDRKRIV
# Method: (§1) The interaction of a compound of Formula (I) with α2-adrenoceptor receptors was assessed in in vitro radioligand binding experiments. In general, a low concentration of a radioligand with a high binding affinity for a particular receptor or transporter is incubated with a sample of a tissue preparation enriched in a particular receptor or transporter or with a preparation of cells expressing cloned human receptors in a buffered medium. During the incubation, the radioligand binds to the receptor or transporter. When equilibrium of binding is reached, the receptor bound radioactivity is separated from the non-bound radioactivity, and the receptor- or transporter-bound activity is counted. The interaction of the test compounds with the receptor is assessed in competition binding experiments. Various concentrations of the test compound are added to the incubation mixture containing the receptor- or transporter preparation and the radioligand. The test compound in proportion to its binding affinity and its concentration inhibits binding of the radioligand. The radioligand used for hα2A and hα2C receptor binding was [^3H]-raulwolscine.
# (§2) CHO cells, stabile transfected with human adrenergic-α2A and α2C receptor cDNA, were cultured in Dulbecco's Modified Eagle's Medium (DMEM)/Nutrient mixture Ham's F12 (ratio 1:1)(Gibco, Gent-Belgium) supplemented with 10% heat inactivated fetal calf serum (Life Technologies, Merelbeke-Belgium) and antibiotics (100 IU/ml penicillin G, 100 μg/ml streptomycin sulphate, 110 μg/ml pyruvic acid and 100 μg/ml L-glutamine). One day before collection, cells were induced with 5 mM sodiumbutyrate. Upon 80-90% of confluence, cells were scraped in phosphate buffered saline without Ca^2+ and Mg^2+ and collected by centrifugation at 1500×g for 10 minutes. The cells were homogenised in Tris-HCl 50 mM using an Ultraturrax homogenizer and centrifuged for 10 minutes at 23,500×g. The pellet was washed once by resuspension and rehomogenization and the final pellet was resuspended in Tris-HCl, divided in 1 ml aliquots and stored at −70° C.
# (§3) Membranes were thawed and re-homogenized in incubation buffer (glycylglycine 25 mM, pH 8.0). […] Filters were rinsed extensively with ice-cold rinsing buffer (Tris-HCl 50 mM pH 7.4). Filter-bound radioactivity was determined by scintillation counting in a Topcount (Packard, Meriden, Conn.) and results were expressed as counts per minute (cpm). Non-specific binding was determined in the presence of 1 μM oxymetazoline for the hα2A receptor and 1 μM spiroxatrine for hα2C receptor.
# (§4) Data from assays in the presence of compound were calculated as a percentage of total binding measured in the absence of test compound. Inhibition curves, plotting percent of total binding versus the log value of the concentration of the test compound, were automatically generated, and sigmoidal inhibition curves were fitted using non-linear regression. The pIC50 values of test compounds were derived from individual curves.
# hα2C receptor = target: T2, hα2C receptor (Homo sapiens, UniProt P18825); assay: Radioligand binding experiment for α2C-adrenoceptor ([3H]raulwolscine, CHO cell membranes); conditions: [3H]raulwolscine binding; for IC50: read-out: h-α2C pIC50 (converted)
# T2 construct: expressed in transfected cells; host or cells: CHO cells, stably transfected; membrane preparation
# T2 sequence (P18825 1-462): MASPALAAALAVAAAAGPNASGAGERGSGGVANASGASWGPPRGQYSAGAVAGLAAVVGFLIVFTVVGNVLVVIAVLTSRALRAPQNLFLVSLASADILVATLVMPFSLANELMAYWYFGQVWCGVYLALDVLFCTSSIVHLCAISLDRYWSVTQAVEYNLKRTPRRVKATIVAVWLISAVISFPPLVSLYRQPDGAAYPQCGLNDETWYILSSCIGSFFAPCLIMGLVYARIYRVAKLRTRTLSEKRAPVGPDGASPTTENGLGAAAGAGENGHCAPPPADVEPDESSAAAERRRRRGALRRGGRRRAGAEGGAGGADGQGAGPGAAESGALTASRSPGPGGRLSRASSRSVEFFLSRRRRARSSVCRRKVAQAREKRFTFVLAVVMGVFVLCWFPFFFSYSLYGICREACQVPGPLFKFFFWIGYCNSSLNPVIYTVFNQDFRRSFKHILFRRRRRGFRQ
# Method: as §1, §2, §3, §4
# 5HT-Transporter = target: T3, 5HT-Transporter (Homo sapiens, UniProt P31645); assay: Binding experiment for the 5HT-transporter ([3H]paroxetine, human platelet membranes); conditions: [3H]paroxetine 0.5 nM; for IC50: read-out: h-5HTT pIC50 (converted)
# T3 construct: Human platelet membranes (Oceanix Biosciences Corporation, Hanover, Md., USA) were thawed; tissue Oceanix Biosciences Corporation, Hanover, Md., USA; host or cells: human platelet membranes
# Method: as §1
# Human platelet membranes (Oceanix Biosciences Corporation, Hanover, Md., USA) were thawed, diluted in buffer (Tris-HCl 50 mM, 120 mM NaCl and 5 mM KCl) and quickly (max 3 s) homogenised with an Ultraturrax homogenizer. […] Incubation was stopped by rapid filtration of the incubation mixture over GF/B filters, pre-wetted with 0.1% polyethyleneamine, using a Filtermate196 harvester (Packard, Meriden, Conn.). Filters were rinsed extensively with ice-cold buffer and radioactivity on the filters was counted in a Topcount liquid scintillation counter (Packard, Meriden, Conn.). Data were expressed as cpm. Imipramine (at 1 μM final concentration) was used to determine the non-specific binding.
# as §4
# T3 sequence (P31645 whole entry): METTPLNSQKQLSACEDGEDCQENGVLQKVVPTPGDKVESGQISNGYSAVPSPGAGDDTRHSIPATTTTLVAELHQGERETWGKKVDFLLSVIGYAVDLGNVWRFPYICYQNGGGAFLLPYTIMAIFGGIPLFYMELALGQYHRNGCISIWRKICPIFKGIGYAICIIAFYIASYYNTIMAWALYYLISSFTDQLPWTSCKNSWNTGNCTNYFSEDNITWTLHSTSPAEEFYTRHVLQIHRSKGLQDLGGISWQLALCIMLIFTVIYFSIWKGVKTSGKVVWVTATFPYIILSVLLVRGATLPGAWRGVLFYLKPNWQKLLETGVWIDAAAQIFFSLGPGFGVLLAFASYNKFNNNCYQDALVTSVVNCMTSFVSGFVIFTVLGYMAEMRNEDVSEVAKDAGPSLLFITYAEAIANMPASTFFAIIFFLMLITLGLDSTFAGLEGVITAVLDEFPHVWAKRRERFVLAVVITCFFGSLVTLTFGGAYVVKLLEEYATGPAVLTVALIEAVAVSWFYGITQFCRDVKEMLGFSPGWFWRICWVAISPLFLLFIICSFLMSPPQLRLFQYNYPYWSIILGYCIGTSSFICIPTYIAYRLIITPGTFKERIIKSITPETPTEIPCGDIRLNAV
SMILES,IC50 (hα2A receptor),IC50 (hα2C receptor),IC50 (5HT-Transporter),h-α2A pIC50 (hα2A receptor),h-α2C pIC50 (hα2C receptor),h-5HTT pIC50 (5HT-Transporter)
CCCC(=O)NCCCn1ccnc(NC2CCN(C/C(C)=C/c3ccccc3)CC2)c1=O [1-32],0.2 µM,0.0126 µM,2.51 µM,–,–,–
C/C(=C\c1ccccc1)CN1CCC(Nc2nccn(CCCNC(=O)CC3CCCC3)c2=O)CC1 [1-33],0.2 µM,0.0126 µM,0.794 µM,–,–,–
C/C(=C\c1ccccc1)CN1CCC(Nc2nccn(-c3cccc(NC(=O)CC4CCCC4)c3)c2=O)CC1 [1-34],0.0631 µM,0.02 µM,0.631 µM,–,–,–
C/C(=C\c1ccccc1)CN1CCC(Nc2nccn(-c3ccc(NC(=O)CC4CCCC4)cc3)c2=O)CC1 [1-35],0.251 µM,0.0501 µM,1.26 µM,–,–,–
C/C(=C\c1ccccc1)CN1CCC(Nc2nccn(Cc3ccc(CNC(=O)C4CCCCC4)cc3)c2=O)CC1 [1-36],0.158 µM,0.0398 µM,0.398 µM,–,–,–
CC(=O)CN(C)CCCn1ccnc(NC2CCN(C/C(C)=C/c3ccccc3)CC2)c1=O [1-38],0.316 µM,0.0126 µM,7.94 µM,–,–,–
C/C(=C\c1ccccc1)CN1CCC(Nc2nccn(CCCNc3ccccc3)c2=O)CC1 [1-39],0.0794 µM,0.00794 µM,0.2 µM,–,–,–
C/C(=C\c1ccccc1)CN1CCC(Nc2nccn(CC(=O)Nc3ccccc3)c2=O)CC1 [1-40],0.0501 µM,0.00316 µM,1 µM,–,–,–
C/C(=C\c1ccccc1)CN1CCC(Nc2nccn(CC(=O)N(C)c3ccccc3)c2=O)CC1 [1-41],0.1 µM,0.00316 µM,0.398 µM,–,–,–
C/C(=C\c1ccccc1)CN1CCC(Nc2nccn(CC(=O)Nc3ccc(F)cc3)c2=O)CC1 [1-42],0.1 µM,0.00398 µM,0.501 µM,–,–,–
C/C(=C\c1ccccc1)CN1CCC(Nc2nccn(-c3cccc(Nc4ccc(F)cc4)c3)c2=O)CC1 [1-43],0.0126 µM,0.00316 µM,0.0501 µM,–,–,–
C/C(=C\c1ccccc1)CN1CCC(Nc2nccn(-c3ccc(Nc4ccc(F)cc4)cc3)c2=O)CC1 [1-44],0.1 µM,0.00501 µM,0.794 µM,–,–,–
C/C(=C\c1ccccc1)CN1CCC(Nc2nccn(CC(=O)Nc3ccc(N4CCOCC4)cc3)c2=O)CC1 [1-45],0.126 µM,0.0398 µM,2 µM,–,–,–
C/C(=C\c1ccccc1)CN1CCC(Nc2nccn(CC(=O)NCc3ccccc3)c2=O)CC1 [1-48],0.126 µM,0.00501 µM,2 µM,–,–,–
C/C(=C\c1ccccc1)CN1CCC(Nc2nccn(-c3cccc(NCc4ccccc4)c3)c2=O)CC1 [1-49],0.0251 µM,0.00398 µM,0.251 µM,–,–,–
C/C(=C\c1ccccc1)CN1CCC(Nc2nccn(-c3ccc(NCc4ccccc4)cc3)c2=O)CC1 [1-50],0.1 µM,0.00316 µM,0.631 µM,–,–,–

# Now from value to compound:
IC50 (hα2A receptor),IC50 (hα2C receptor),IC50 (5HT-Transporter),h-α2A pIC50 (hα2A receptor),h-α2C pIC50 (hα2C receptor),h-5HTT pIC50 (5HT-Transporter),SMILES
0.0501 µM,0.001 µM,1 µM,–,–,–,C/C(=C\c1ccccc1)CN1CCC(Nc2nccn(CCCN(C)Cc3ccccc3)c2=O)CC1 [1-51]
0.0631 µM,0.00251 µM,0.631 µM,–,–,–,C/C(=C\c1ccccc1)CN1CCC(Nc2nccn(CC(=O)N(C)Cc3ccccc3)c2=O)CC1 [1-52]
–,–,–,8.4,8.6,6.7,C/C(=C\c1ccccc1)CN1CCC(Nc2nccn(-c3cccc(CN(C)Cc4ccccc4)c3)c2=O)CC1 [1-53]
0.0501 µM,0.00398 µM,0.2 µM,–,–,–,C/C(=C\c1ccccc1)CN1CCC(Nc2nccn(-c3ccc(CN(C)Cc4ccccc4)cc3)c2=O)CC1 [1-54]
0.0631 µM,0.00126 µM,0.316 µM,–,–,–,C/C(=C\c1ccccc1)CN1CCC(Nc2nccn(CC(=O)NCc3ccc(F)cc3)c2=O)CC1 [1-55]
0.158 µM,0.0158 µM,0.251 µM,–,–,–,C/C(=C\c1ccccc1)CN1CCC(Nc2nccn(-c3ccc(C(=O)NCc4ccc(F)cc4)cc3)c2=O)CC1 [1-56]
0.126 µM,0.00398 µM,3.16 µM,–,–,–,C/C(=C\c1ccccc1)CN1CCC(Nc2nccn(CC(=O)NCCc3ccccc3)c2=O)CC1 [1-57]
0.0251 µM,0.00631 µM,0.398 µM,–,–,–,C/C(=C\c1ccccc1)CN1CCC(Nc2nccn(-c3cccc(NCCc4ccccc4)c3)c2=O)CC1 [1-58]
0.0794 µM,0.01 µM,1.26 µM,–,–,–,C/C(=C\c1ccccc1)CN1CCC(Nc2nccn(-c3ccc(NCCc4ccccc4)cc3)c2=O)CC1 [1-59]
0.0794 µM,0.01 µM,0.794 µM,–,–,–,C/C(=C\c1ccccc1)CN1CCC(Nc2nccn(CC(=O)NCCCc3ccccc3)c2=O)CC1 [1-60]
0.1 µM,0.00631 µM,1.26 µM,–,–,–,C/C(=C\c1ccccc1)CN1CCC(Nc2nccn(CC(=O)N(C)CCc3ccccc3)c2=O)CC1 [1-61]
0.126 µM,0.00316 µM,1 µM,–,–,–,C/C(=C\c1ccccc1)CN1CCC(Nc2nccn(CC(=O)NC(C)(C)Cc3ccccc3)c2=O)CC1 [1-62]
0.1 µM,0.0126 µM,0.631 µM,–,–,–,COc1ccc(NC(=O)Cn2ccnc(NC3CCN(C/C(C)=C/c4ccccc4)CC3)c2=O)cc1 [1-63]
0.251 µM,0.0126 µM,1.58 µM,–,–,–,COc1ccc(CNC(=O)Cn2ccnc(NC3CCN(C/C(C)=C/c4ccccc4)CC3)c2=O)cc1 [1-64]
0.1 µM,0.00398 µM,0.794 µM,–,–,–,COc1cc(CNC(=O)Cn2ccnc(NC3CCN(C/C(C)=C/c4ccccc4)CC3)c2=O)cc(OC)c1 [1-65]
0.0794 µM,0.0126 µM,0.794 µM,–,–,–,CCCCN(Cc1ccccc1)C(=O)Cn1ccnc(NC2CCN(C/C(C)=C/c3ccccc3)CC2)c1=O [1-66]
0.1 µM,0.00316 µM,1 µM,–,–,–,C/C(=C\c1ccccc1)CN1CCC(Nc2nccn(CC(=O)N(CCO)Cc3ccccc3)c2=O)CC1 [1-67]
0.158 µM,0.0126 µM,0.794 µM,–,–,–,C/C(=C\c1ccccc1)CN1CCC(Nc2nccn(CC(=O)NCC(c3ccccc3)c3ccccc3)c2=O)CC1 [1-68]
